Reference: US20160257651A1, “NOVEL COMPOUND WITH ANTIBACTERIAL ACTIVITY” (priority 2013, published 2016)
Converted amounts (≈) assume the structure as drawn. Read-outs that look alike come from different tables or passages of the source.

Key:
[1] = test system: S. aureus MS5952 one-step mutant; assay: MIC against stepwise QRDR mutants; type: cell-based; conditions: Staphylococcus aureus
Description: (§1) The strains used for this test example are available from the inventors of the present invention.
(§2) Then, the cell suspension was diluted 500 times with CAMHB mentioned above.

[2] = test system: S. aureus MR5867 one-step mutant; assay: MIC against stepwise QRDR mutants; type: cell-based; conditions: Staphylococcus aureus
Description: as §1, §2

[3] = test system: Staphylococcus aureus VRS5 (VRSA); assay: MIC, S. aureus categories (Test Example 3); type: cell-based
Description: (§3) The antibacterial activities of the compound J-131CP against Staphylococcus aureus strains belonging to the five categories of Staphylococcus aureus, i.e., MSSA, MRSA, community-acquired-infection type MRSA (CA-MRSA), VISA, and VRSA, were investigated.
(§4) The compound J-131CP and quinolones were prepared in the same manner as that of Test Example 1-1.
(§5) Cell suspensions were prepared in the same manner as that of Test Example 1-1 described in the section of measurement of MIC in Test Example 1-1, except that the strains mentioned in Table 6 were used as Staphylococcus aureus, and MICs of the compound J-131CP and quinolones as the control were determined for the strains in the same manner as that of Test Example 1-1. In Table 6, the amino acid substitution mutations in QRDR of the strains are underlined.

[4] = test system: Staphylococcus aureus KSA36 (MRSA); assay: MIC, S. aureus categories (Test Example 3); type: cell-based
Description: as §3, §4, §5

[5] = test system: Staphylococcus aureus MI (VISA); assay: MIC, S. aureus categories (Test Example 3); type: cell-based
Description: as §3, §4, §5

[6] = test system: Staphylococcus aureus USA300FPR (CA-MRSA); assay: MIC, S. aureus categories (Test Example 3); type: cell-based
Description: as §3, §4, §5

[7] = test system: Staphylococcus aureus BR2 (VISA); assay: MIC, S. aureus categories (Test Example 3); type: cell-based
Description: as §3, §4, §5

[8] = test system: Staphylococcus aureus NCTC8325 (MSSA); assay: MIC, S. aureus categories (Test Example 3); type: cell-based; conditions: strain NCTC8325, MSSA
Description: as §3, §4, §5

[9] = test system: Staphylococcus aureus VRS3a (VRSA); assay: MIC, S. aureus categories (Test Example 3); type: cell-based
Description: as §3, §4, §5

[10] = test system: Staphylococcus aureus VRS1 (VRSA); assay: MIC, S. aureus categories (Test Example 3); type: cell-based
Description: as §3, §4, §5

[11] = test system: Staphylococcus aureus MW2 (CA-MRSA); assay: MIC, S. aureus categories (Test Example 3); type: cell-based; conditions: strain MW2, CA-MRSA
Description: as §3, §4, §5

[12] = test system: Staphylococcus aureus ATCC29213 (MSSA); assay: MIC, S. aureus categories (Test Example 3); type: cell-based; conditions: strain ATCC29213, MSSA
Description: as §3, §4, §5

[13] = test system: S. pneumoniae KBSP04; assay: MIC against pneumococcus, CAMHB with 5 mass % LHB; type: cell-based; conditions: Streptococcus pneumoniae
From the text: (§6) Antibacterial activity of the compound J-131CP against pneumococcus (Streptococcus pneumoniae) was examined by the following method. The S. pneumoniae strains used for this test belong to any one of the categories of penicillin-susceptible pneumococcus (penicillin-susceptible Streptococcus pneumoniae, PSSP), penicillin-intermediate pneumococcus (penicillin-intermediate Streptococcus pneumoniae, PISP), and penicillin-resistant pneumococcus (penicillin-resistant Streptococcus pneumoniae, PRSP).
(§7) The compound J-131CP and quinolones were prepared in the same manner as that of Test Example 1-1, except that CAMHB containing 5 mass % of lysed horse blood (LHB) was used for the dilution instead of CAMHB. The lysed horse blood was prepared by adding sterilized water to horse sterile defibered blood (produced by Nippon Bio-Supp. Center) at a ratio of 1:1, subjecting the mixture to freezing and thawing 5 times, then centrifuging the mixture twice at 10,000 rpm for 20 minutes, and filtering the supernatant through a filter.
(§8) The S. pneumoniae strains mentioned in Table 11 were each cultured overnight at 37° C. on a blood agar medium as stationary culture. The blood agar medium was prepared by adding 5 mass % ovine sterile defibered blood (produced by Nippon Bio-Supp. Center) to a heart infusion agar medium (produced by EIKEN CHEMICAL). Each S. pneumoniae strain cultured overnight at 37° C. as stationary culture was further subcultured overnight at 37° C. on fresh blood agar medium as stationary culture. After completion of the culture, cells of each pneumococcus strain were collected with a swab, and suspended in physiological saline, and the suspension was adjusted with physiological saline to show absorbance of 0.08 to 0.13 at 625 nm as measured with an absorbance meter (produced by Amersham), and further diluted 200 times with CAMHB containing 5 mass % LHB.
(§9) CAMHB containing the compound J-131CP at each concentration or each quinolone at each concentration, and 5 mass % LHB was added to each well of a 96-well plate in a volume of 50 μL/well, each cell suspension diluted 200 times was added to the well in a volume of 50 μL/well, and stationary culture was carried out overnight at 37° C.
(§10) After completion of the culture, whether the bacterium proliferated or not was determined on the basis of visually observed turbidity of the culture in the well, and MIC values (mg/L) of the compound J-131CP and the quinolones for the strains were determined. In Table 11, the amino acid substitution mutations in QRDR of the strains are underlined.

[14] = test system: S. pneumoniae JHSP11; assay: MIC against pneumococcus, CAMHB with 5 mass % LHB; type: cell-based; conditions: Streptococcus pneumoniae
From the text: as §6, §7, §8, §9, §10

[15] = test system: S. pneumoniae BCLSP16; assay: MIC against pneumococcus, CAMHB with 5 mass % LHB; type: cell-based; conditions: Streptococcus pneumoniae
From the text: as §6, §7, §8, §9, §10

[16] = test system: S. pneumoniae KBSP11; assay: MIC against pneumococcus, CAMHB with 5 mass % LHB; type: cell-based, Streptococcus pneumoniae; conditions: Streptococcus pneumoniae
Description: as §6, with “The” for “Antibacterial activity of the compound J-131CP against pneumococcus (Streptococcus pneumoniae) was examined by the following method. The”
(§11) The lysed horse blood was prepared by adding sterilized water to horse sterile defibered blood (produced by Nippon Bio-Supp. Center) at a ratio of 1:1, subjecting the mixture to freezing and thawing 5 times, then centrifuging the mixture twice at 10,000 rpm for 20 minutes, and filtering the supernatant through a filter.
as §8
(§12) In Table 11, the amino acid substitution mutations in QRDR of the strains are underlined.

[17] = test system: S. pneumoniae BCLSP37; assay: MIC against pneumococcus, CAMHB with 5 mass % LHB; type: cell-based, Streptococcus pneumoniae; conditions: Streptococcus pneumoniae, BCLSP37, S. pneumoniae BCLSP37, PSSP, quinolone-resistant; ParC 79Phe, GyrA 85Lys; read-out: MIC
Description: as §6, with “The” for “Antibacterial activity of the compound J-131CP against pneumococcus (Streptococcus pneumoniae) was examined by the following method. The”
as §11, §8, §12

[18] = Staphylococcus aureus, read-out: MIC
[19] = S. pneumoniae KBSP11, PRSP, quinolone-susceptible, read-out: MIC
[20] = S. pneumoniae KBSP04, PISP, read-out: MIC

Row | SMILES | MIC [1] | MIC [2] | MIC [3] | MIC [4] | MIC [5] | MIC [6] | MIC [7] | MIC [9] | MIC [10] | MIC [11, 18] | MIC ([12]; read-out: MIC) | MIC ([13]; KBSP04) | MIC [14] | MIC ([15]; BCLSP16) | MIC [16, 19] | MIC [17] | MIC [8, 18] | MIC [13, 20] | other results
1 | C[C@@H]1CN(c2c(F)c(N)c3c(=O)c(C(=O)O)cn(C4CC4)c3c2F)C[C@H](C)N1 [SPX, sparfloxacin] | 8 µg/mL (≈ 20.4 µM) | < 0.06 µg/mL | 128 µg/mL (≈ 326 µM) | 128 µg/mL (≈ 326 µM) | 32 µg/mL (≈ 81.5 µM) | 8 µg/mL (≈ 20.4 µM) | 32 µg/mL (≈ 81.5 µM) | 16 µg/mL (≈ 40.8 µM) | 8 µg/mL (≈ 20.4 µM) | ≤ 0.06 µg/mL | ≤ 0.06 µg/mL | 0.125 µg/mL (≈ 0.319 µM) | > 32 µg/mL | 16 µg/mL (≈ 40.8 µM) | 0.25 µg/mL (≈ 0.637 µM) | > 32 µg/mL |  |  | MIC ([8]; Staphylococcus aureus): 0.125 µg/mL (≈ 0.319 µM)
2 | C[C@H]1COc2c(N3CCN(C)CC3)c(F)cc3c(=O)c(C(=O)O)cn1c23 [LVX, levofloxacin] | 0.5 µg/mL (≈ 1.38 µM) | 1 µg/mL (≈ 2.77 µM) | > 128 µg/mL | > 128 µg/mL | 32 µg/mL (≈ 88.6 µM) | 4 µg/mL (≈ 11.1 µM) | 8 µg/mL (≈ 22.1 µM) | 16 µg/mL (≈ 44.3 µM) | 16 µg/mL (≈ 44.3 µM) |  |  |  | 64 µg/mL (≈ 177 µM) | 32 µg/mL (≈ 88.6 µM) | 1 µg/mL (≈ 2.77 µM) | 32 µg/mL (≈ 88.6 µM) | 0.25 µg/mL (≈ 0.692 µM) | 2 µg/mL (≈ 5.53 µM) | MIC ([11]; Staphylococcus aureus, MRSA): 0.125 µg/mL (≈ 0.346 µM); MIC [12]: 0.125 µg/mL (≈ 0.346 µM)
3 | O=C(O)c1cn(C2CC2)c2cc(N3CCNCC3)c(F)cc2c1=O [CIP, ciprofloxacin] |  |  | > 128 µg/mL | 128 µg/mL (≈ 386 µM) | 16 µg/mL (≈ 48.3 µM) | 16 µg/mL (≈ 48.3 µM) | 4 µg/mL (≈ 12.1 µM) | 64 µg/mL (≈ 193 µM) | 128 µg/mL (≈ 386 µM) | 0.25 µg/mL (≈ 0.754 µM) | 0.25 µg/mL (≈ 0.754 µM) |  | > 32 µg/mL |  | 0.5 µg/mL (≈ 1.51 µM) | > 32 µg/mL | 0.25 µg/mL (≈ 0.754 µM) | 0.5 µg/mL (≈ 1.51 µM) | MIC ([15]; S. pneumoniae BCLSP16, PSSP, ParC 79Tyr, GyrA 81Phe, read-out: MIC): > 32 µg/mL
4 | CC1COc2c(N3CCN(C)CC3)c(F)cc3c(=O)c(C(=O)O)cn1c23 (stereo not drawn) [OFX, ofloxacin] | 1 µg/mL (≈ 2.77 µM) | 1 µg/mL (≈ 2.77 µM) | > 128 µg/mL | > 128 µg/mL | 128 µg/mL (≈ 354 µM) | 16 µg/mL (≈ 44.3 µM) | 64 µg/mL (≈ 177 µM) | 32 µg/mL (≈ 88.6 µM) | 32 µg/mL (≈ 88.6 µM) | 0.5 µg/mL (≈ 1.38 µM) | 0.25 µg/mL (≈ 0.692 µM) |  | 8 µg/mL (≈ 22.1 µM) | 16 µg/mL (≈ 44.3 µM) | 0.5 µg/mL (≈ 1.38 µM) | 32 µg/mL (≈ 88.6 µM) | 0.25 µg/mL (≈ 0.692 µM) | 0.5 µg/mL (≈ 1.38 µM) | 
5 | O=c1cc(CO)c2cc(F)c(-c3ccc(O)cc3)cc2n1C1CC1 [J-131CP, 1-cyclopropyl-6-fluoro-4-(hydroxymethyl)-7-(4-hydroxyphenyl)-1,2-dihydroquinolin-2-one] | 0.25 µg/mL (≈ 0.768 µM) | 0.25 µg/mL (≈ 0.768 µM) | ≤ 0.06 µg/mL | ≤ 0.06 µg/mL | ≤ 0.06 µg/mL | ≤ 0.06 µg/mL | ≤ 0.06 µg/mL | ≤ 0.06 µg/mL | ≤ 0.06 µg/mL |  | 0.25 µg/mL (≈ 0.768 µM) | 4 µg/mL (≈ 12.3 µM) | 4 µg/mL (≈ 12.3 µM) | 4 µg/mL (≈ 12.3 µM) |  | 4 µg/mL (≈ 12.3 µM) |  |  | MIC ([8]; Staphylococcus aureus): 0.125 to 0.25 µg/mL (≈ 0.384 to 0.768 µM); MIC [8]: 0.125 µg/mL (≈ 0.384 µM); MIC ([11]; Staphylococcus aureus, MRSA): 0.125 to 0.25 µg/mL (≈ 0.384 to 0.768 µM); MIC [11]: 0.125 µg/mL (≈ 0.384 µM); MIC [12]: 0.125 to 0.25 µg/mL (≈ 0.384 to 0.768 µM); MIC ([16]; PRSP): 2 µg/mL (≈ 6.15 µM)
6 | CCn1cc(C(=O)O)c(=O)c2cc(F)c(N3CCNCC3)cc21 [NOR, norfloxacin] | 16 µg/mL (≈ 50.1 µM) | 16 µg/mL (≈ 50.1 µM) | > 128 µg/mL | > 128 µg/mL | 128 µg/mL (≈ 401 µM) | 32 µg/mL (≈ 100 µM) | 64 µg/mL (≈ 200 µM) | 128 µg/mL (≈ 401 µM) | > 128 µg/mL | 0.5 µg/mL (≈ 1.57 µM) | 1 µg/mL (≈ 3.13 µM) |  | 128 µg/mL (≈ 401 µM) | > 128 µg/mL | 4 µg/mL (≈ 12.5 µM) | 64 µg/mL (≈ 200 µM) | 1 µg/mL (≈ 3.13 µM) | 4 µg/mL (≈ 12.5 µM) | 
7 | NC1CCN(c2nc3c(cc2F)c(=O)c(C(=O)O)cn3-c2ccc(F)cc2F)C1 (stereo not drawn) [TSX, tosufloxacin] | 2 µg/mL (≈ 4.95 µM) | 0.25 µg/mL (≈ 0.618 µM) | > 128 µg/mL | > 128 µg/mL | 16 µg/mL (≈ 39.6 µM) | 16 µg/mL (≈ 39.6 µM) | 32 µg/mL (≈ 79.1 µM) | > 128 µg/mL | 4 µg/mL (≈ 9.89 µM) | ≤ 0.06 µg/mL | ≤ 0.06 µg/mL | 0.125 µg/mL (≈ 0.309 µM) | 8 µg/mL (≈ 19.8 µM) | 8 µg/mL (≈ 19.8 µM) |  | 16 µg/mL (≈ 39.6 µM) | ≤ 0.06 µg/mL |  | MIC ([16]; PRSP): 0.125 µg/mL (≈ 0.309 µM)
